In PMC5784158, “New 2-Aryl-9-methyl-β-carbolinium salts as Potential Acetylcholinesterase Inhibitor agents: Synthesis, Bioactivity and Structure–Activity Relationship” (Scientific Reports, 2018):
Where two headings read alike, the source gives them in different places.

Assays:
AChE = AChE (Musca domestica, UniProt Q7YWJ9); assay: biochemical; assay type: biochemical, fly
Method: AChE (E.C. 3.1.1.7) (BR, 200 u/mg) from fly’s head and BuChE (E.C. 3.1.1.8) (BR, 20 u/mg) from horse serum were purchased from Shanghai Yuanye biological technology Co. Ltd (Shanghai, China).
(§1) The inhibitory activities of the compounds against AChE were evaluated according to Ellman’s coupled enzyme assay[47] with the following modifications. 90 μL potassium phosphate buffer (PBS, 0.1 M, pH 7.4), 10 μL the solution of 2 units/mL AChE in 0.1 M PBS (pH 7.4) and 10 μL the solution of 200 μM test compounds in the mixed solution of methanol-PBS (pH 7.4) (1:9, V/V) were added to each well of a 96-well plate. The methanol-PBS solution was used as a blank control. After incubation at room temperature for 10 min, 60 μL the solution of 10 mM DTNB in PBS was added into each the well. The plate was placed on crushed ices and cooled for 20 min. To each the well was added 30 μL the solution of 7.5 mM ATCh in PBS (pH 7.4). […] Each test was performed in triplicate. Inhibition rates of the enzyme were calculated relative to a control sample. The inhibitory activities against BuChE were measured as described above for AChE, using 0.7 unit/mL BuChE and 4 mM BuTCh instead of AChE and ATCh as the enzyme and substrate, respectively.
(§2) The probit value of the average inhibition rate for each test concentration and the corresponding lg[concentration] were used to establish enzyme inhibition regression equation by the linear least-square fitting method. IC50 values were calculated from the equations.

BuChE = molecular target: T1, BuChE (Equus caballus, UniProt P81908); assay: BuChE inhibition, Ellman's method; assay type: biochemical, horse; details: read-out: IC50 ± S.D BuChE
T1 construct: BuChE (E.C. 3.1.1.8) (BR, 20 u/mg) from horse serum; purchased Shanghai Yuanye biological technology Co. Ltd (Shanghai, China); host or cells: horse serum (tissue-derived)
Description: There is increasing recognition that BuChE may play an important role in cholinergic transmission[15],[16]. While the level of AChE decreases dramatically in the advanced stage of AD, BuChE increases in brain regions involved in cognitive functions[17],[18]. At this point, BuChE is able to compensate for AChE loss by hydrolyzing ACh. These observations lead one to believe that inhibition of both AChE and BuChE may contribute to improvement of current symptomatic treatments of AD. Therefore, the compounds in Table 2 were also evaluated for BuChE inhibition activity by means of Ellman’s method. […] AChE (E.C. 3.1.1.7) (BR, 200 u/mg) from fly’s head and BuChE (E.C. 3.1.1.8) (BR, 20 u/mg) from horse serum were purchased from Shanghai Yuanye biological technology Co. Ltd (Shanghai, China).
as §1, §2

[1] = test concentration of the compound 10 μM

T1 sequence (P81908 whole entry): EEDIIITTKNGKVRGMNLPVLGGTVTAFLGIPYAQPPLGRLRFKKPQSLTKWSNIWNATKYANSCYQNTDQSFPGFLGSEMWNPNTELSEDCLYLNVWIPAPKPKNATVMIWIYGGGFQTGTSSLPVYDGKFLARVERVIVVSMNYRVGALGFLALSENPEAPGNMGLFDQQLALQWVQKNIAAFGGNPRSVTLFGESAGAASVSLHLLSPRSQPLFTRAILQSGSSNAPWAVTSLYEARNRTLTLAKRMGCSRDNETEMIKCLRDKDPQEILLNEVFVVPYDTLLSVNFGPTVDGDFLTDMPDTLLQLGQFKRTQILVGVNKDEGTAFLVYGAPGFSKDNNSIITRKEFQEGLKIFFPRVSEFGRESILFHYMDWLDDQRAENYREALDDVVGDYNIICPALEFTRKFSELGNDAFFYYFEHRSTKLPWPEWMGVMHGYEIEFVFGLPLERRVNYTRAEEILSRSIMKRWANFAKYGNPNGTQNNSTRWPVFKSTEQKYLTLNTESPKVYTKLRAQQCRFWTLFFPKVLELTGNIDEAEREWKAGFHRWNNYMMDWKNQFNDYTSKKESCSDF
AChE, sequence (Q7YWJ9 81-659): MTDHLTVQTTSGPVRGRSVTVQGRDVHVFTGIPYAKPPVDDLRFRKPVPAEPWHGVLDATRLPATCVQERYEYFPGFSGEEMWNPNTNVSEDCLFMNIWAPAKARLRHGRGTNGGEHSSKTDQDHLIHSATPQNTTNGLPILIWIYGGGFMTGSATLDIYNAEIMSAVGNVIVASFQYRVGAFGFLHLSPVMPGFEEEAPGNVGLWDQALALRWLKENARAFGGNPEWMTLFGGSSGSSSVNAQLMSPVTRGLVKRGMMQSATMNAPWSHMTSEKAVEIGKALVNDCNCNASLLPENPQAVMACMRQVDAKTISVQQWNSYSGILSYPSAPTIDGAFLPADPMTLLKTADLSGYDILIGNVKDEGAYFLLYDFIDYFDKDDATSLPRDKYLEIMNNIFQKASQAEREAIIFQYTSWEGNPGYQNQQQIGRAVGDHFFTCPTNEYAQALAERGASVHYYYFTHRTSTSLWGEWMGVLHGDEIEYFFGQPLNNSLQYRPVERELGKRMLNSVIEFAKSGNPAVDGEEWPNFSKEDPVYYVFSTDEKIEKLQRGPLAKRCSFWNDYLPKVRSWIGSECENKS

Row | Compound | SI: selectivity index, ratio IC50 (BuChE)/IC50 (AChE) (AChE) | IC50 (AChE; read-out: IC50 ± S.D AChE) [µM] | Inhibition rate (%) (AChE; [1]) | IC50 (BuChE) [µM] | IC50 (AChE; Estimated values based on the results in Table 1 (inhibition rate at 10 μM), read-out: IC50 AChE, estimated values) [µM] | IC50 (AChE; 10 μM, read-out: IC50 AChE, NA) [µM] | inhibition at 10 µM (AChE; test concentration of the compound 10 μM, read-out: Inhibition rate (%)) [%]
1 | Cn1c2c(c3ccccc31)CC[N+](c1ccccc1)=C2.[Br-] [Compound A1] | 0.54 | 18.6 ± 2.93 | 40.9 ± 2.1 ij % | 10.1 ± 1.66 | – | – | –
2 | Cn1c2c(c3ccccc31)CC[N+](c1ccc(F)cc1)=C2.[Br-] [Compound A4] | 4.22 | 14.1 ± 1.41 | 49.3 ± 2.2 fgh % | 59.5 ± 2.72 | – | – | –
3 | Cn1c2c(c3ccccc31)CC[N+](c1ccc(Cl)cc1)=C2.[Br-] [Compound A7] | 5.57 | 7.58 ± 1.29 | 60.1 ± 2.9 d % | 42.2 ± 0.86 | – | – | –
4 | Cn1c2c(c3ccccc31)CC[N+](c1ccc(Br)cc1)=C2.[Br-] [Compound A10] | 11.2 | 6.79 ± 2.29 | 60.3 ± 1.6 d % | 76.2 ± 11 | – | – | –
5 | Cn1c2c(c3ccccc31)CC[N+](c1ccc(I)cc1)=C2.[Br-] [Compound A13] | 9.80 | 5.5 ± 0.37 | 54.2 ± 3.2 ef % | 53.8 ± 2.51 | – | – | –
6 | Cn1c2c(c3ccccc31)CC[N+](c1cccc(O)c1)=C2.[Br-] [Compound A15] | 1.63 | 6.12 ± 0.61 | 51.8 ± 9.1 fg % | 10 ± 0.59 | – | – | –
7 | Cn1c2c(c3ccccc31)CC[N+](c1ccc(O)cc1)=C2.[Br-] [Compound A16] | 9.96 | 2.81 ± 0.22 | 64.3 ± 0.3 cd % | 28 ± 2.88 | – | – | –
8 | COc1ccc([N+]2=Cc3c(c4ccccc4n3C)CC2)cc1.[Br-] [Compound A19] | 46.9 | 2.92 ± 0.28 | 66.1 ± 0.5 c % | 137 ± 0.79 | – | – | –
9 | COc1ccc2c(c1)c1c(n2C)C=[N+](c2ccccc2)CC1.[Br-] [Compound A34] | 18.4 | 2.04 ± 0.33 | 68.4 ± 2.8 c % | 37.6 ± 2.84 | – | – | –
10 | Cc1ccc2c(c1)c1c(n2C)C=[N+](c2ccccc2)CC1.[Br-] [Compound A35] | 3.98 | 2.66 ± 0.37 | 70.3 ± 2.2 bc % | 10.6 ± 0.58 | – | – | –
11 | Cn1c2c(c3ccc(F)cc31)CC[N+](c1ccccc1)=C2.[Br-] [Compound A36] | 3.00 | 4.74 ± 0.9 | 59.3 ± 2.1 de % | 14.2 ± 0.44 | – | – | –
12 | Cn1c2c(c3ccc(Cl)cc31)CC[N+](c1ccccc1)=C2.[Br-] [Compound A37] | 2.91 | 4.02 ± 0.95 | 66.6 ± 4.7 c % | 11.7 ± 0.5 | – | – | –
13 | CCn1c2c(c3ccccc31)CC[N+](c1ccccc1)=C2.[Br-] [Compound A38] | 2.82 | 3.69 ± 0.4 | 76.6 ± 3.7 a % | 10.4 ± 0.4 | – | – | –
14 | CCCn1c2c(c3ccccc31)CC[N+](c1ccccc1)=C2.[Br-] [Compound A39] | 2.27 | 5.72 ± 0.66 | 67.1 ± 2.4 c % | 13 ± 0.62 | – | – | –
15 | CC(C)n1c2c(c3ccccc31)CC[N+](c1ccccc1)=C2.[Br-] [Compound A40] | 4.37 | 3.73 ± 0.34 | 68.9 ± 5.1 bc % | 16.3 ± 0.56 | – | – | –
16 | C=CCn1c2c(c3ccccc31)CC[N+](c1ccccc1)=C2.[Br-] [Compound A41] | 1.75 | 3.91 ± 0.36 | 74.4 ± 1.1 ab % | 6.83 ± 0.2 | – | – | –

Row | Compound | SI: selectivity index, ratio IC50 (BuChE)/IC50 (AChE) (AChE) | IC50 (AChE; read-out: IC50 ± S.D AChE) [µM] | Inhibition rate (%) (AChE; [1]) | IC50 (BuChE) [µM] | IC50 (AChE; Estimated values based on the results in Table 1 (inhibition rate at 10 μM), read-out: IC50 AChE, estimated values) [µM] | IC50 (AChE; 10 μM, read-out: IC50 AChE, NA) [µM] | inhibition at 10 µM (AChE; test concentration of the compound 10 μM, read-out: Inhibition rate (%)) [%]
17 | CCCCn1c2c(c3ccccc31)CC[N+](c1ccccc1)=C2.[Br-] [Compound A42] | 1.02 | 9.79 ± 3.55 | 53.9 ± 1.5 ef % | 10 ± 0.68 | – | – | –
18 | C1=[N+](c2ccccc2)CCc2c1[nH]c1ccccc21.[Br-] [Compound A46] | – | 18.2 ± 1.97 | 41.3 ± 1.4 ij % | 3.9 ± 0.53 | – | – | –
19 | Cn1c2ccccc2c2cc[n+](-c3ccccc3F)cc21.[Br-] [Compound B2, 9-Methyl-2-(2-fluorophenyl)-β-carboline bromide] | 3.49 | 6.65 ± 1.07 | 59.8 ± 3.2 n % | 23 ± 0.53 | – | – | –
20 | Cn1c2ccccc2c2cc[n+](-c3cccc(F)c3)cc21.[Br-] [Compound B3, 9-Methyl-2-(3-fluorophenyl)-β-carboline bromide] | 15.3 | 4.73 ± 0.33 | 70.5 ± 2.2 l % | 72.4 ± 4.25 | – | – | –
21 | Cn1c2ccccc2c2cc[n+](-c3ccc(F)cc3)cc21.[Br-] [Compound B4, 9-Methyl-2-(4-fluorophenyl)-β-carboline bromide] | 35.3 | 1.46 ± 0.12 | 84.3 ± 1.5 hi % | 51.6 ± 2.43 | – | – | –
22 | Cn1c2ccccc2c2cc[n+](-c3cccc(Cl)c3)cc21.[Br-] [Compound B6, 9-Methyl-2-(3-chlorophenyl)-β-carboline bromide] | 3.40 | 9.65 ± 0.78 | 56.4 ± 2.5 no % | 33.1 ± 1.07 | – | – | –
23 | Cn1c2ccccc2c2cc[n+](-c3ccc(Cl)cc3)cc21.[Br-] [Compound B7, 9-Methyl-2-(4-chlorophenyl)-β-carboline bromide] | 107.1 | 0.56 ± 0.07 | 91.2 ± 1.5 cde % | 60 ± 1.52 | – | – | –
24 | Cn1c2ccccc2c2cc[n+](-c3ccc(Br)cc3)cc21.[Br-] [Compound B10, 9-Methyl-2-(4-bromophenyl)-β-carboline bromide] | 128.8 | 0.43 ± 0.04 | 95.4 ± 0.8 ab % | 55.4 ± 1.73 | – | – | –
25 | C=CCn1c2ccccc2c2cc[n+](-c3ccccc3)cc21.[Br-] [Compound B41, 9-Allyl-2-phenyl-β-carboline bromide] | – | 1.18 ± 0.3 | 78.2 ± 1.6 k % | – | – | – | –
26 | CCCCn1c2ccccc2c2cc[n+](-c3ccccc3)cc21.[Br-] [Compound B42, 9-Butyl-2-phenyl-β-carboline bromide] | – | 2.91 ± 0.33 | 65.7 ± 0.6 m % | – | – | – | –
27 | CC(C)Cn1c2ccccc2c2cc[n+](-c3ccccc3)cc21.[Br-] [Compound B43, 9-Iso-butyl-2-phenyl-β-carboline bromide] | – | 0.98 ± 0.03 | 84.1 ± 0.6 hi % | – | – | – | –
28 | [Br-].c1ccc(Cn2c3ccccc3c3cc[n+](-c4ccccc4)cc32)cc1 [Compound B44, 9-Benzyl-2-phenyl-β-carboline bromide] | – | 11.2 ± 2.54 | 47.8 ± 2.0 q % | – | – | – | –
29 | CCOC(=O)Cn1c2ccccc2c2cc[n+](-c3ccccc3)cc21.[Br-] [Compound B45, 9-(Ethoxy-2-oxyethyl)-2-phenyl-β-carboline bromide] | – | – | 42.0 ± 0.7 rs % | – | > 10 | – | –
30 | Br.c1ccc(-n2ccc3c4ccccc4nc-3c2)cc1 [Compound B46, 2-Phenyl-β-carboline bromide] | – | 18 ± 2.42 | 43.0 ± 1.8 r % | – | – | – | –
31 | Cc1ccc(N2CCc3c(n(C)c4ccccc34)C2)cc1 [Compound C1, 9-methyl-2-p-toly-1,2,3,4-tetrahydro-β-carboline] | – | – | – | – | – | > 10 | -2.3 ± 3.2
